Data published in ChEMBL document CHEMBL4017512 (J Med Chem, 2017).

Experiments:
[1] = system: NCI-H520; test: Antiproliferative activity against human NCI-H520 cells after 72 hrs by phosphatase assay; format: functional, cell-based; details: NCI-H520, 72 h
[2] = Antiproliferative activity against human HCT116/VP35 cells after 72 hrs by phosphatase assay; format: functional, cell-based; details: HCT-116, 72 h
[3] = system: HCT-116; test: Antiproliferative activity against human HCT116 cells after 72 hrs by phosphatase assay; format: functional, cell-based; details: HCT-116, 72 h
[4] = system: PA-1; test: Antiproliferative activity against human PA1 cells after 72 hrs by phosphatase assay; format: functional, cell-based; details: PA-1, 72 h
[5] = system: LNCaP; test: Antiproliferative activity against human LNCAP cells after 72 hrs by phosphatase assay; format: functional, cell-based
[6] = Displacement of BODIPY-labeled vinblastine from tubulin (unknown origin) at 18 uM after 60 mins by fluorescence assay relative to control; details: Homo sapiens
[7] = Cytotoxicity against human HCT116/VM46 cells assessed as reduction in cell viability after 72 hrs by phosphatase assay; format: cell-based; details: HCT-116/VM46, 72 h
[8] = system: MDA-MB-468; test: Antiproliferative activity against human MDA-MB-468 cells after 72 hrs by phosphatase assay; format: functional, cell-based; details: MDA-MB-468, 72 h
[9] = system: LS174T; test: Antiproliferative activity against human LS174T cells after 72 hrs by phosphatase assay; format: functional, cell-based
[10] = system: L1210; test: Antiproliferative activity against mouse L1210 cells after 72 hrs by phosphatase assay; format: functional, cell-based; details: L1210, 72 h
[11] = Cytotoxicity against human HCT116/VM46 cells assessed as reduction in cell viability; format: cell-based; details: HCT-116/VM46
[12] = system: L1210; test: Antiproliferative activity against mouse L1210 cells; format: functional, cell-based
[13] = system: HCT-116; test: Antiproliferative activity against human HCT116 cells; format: functional, cell-based
[14] = Apparent permeability from basolateral to apical side in human Caco2 cells; format: ADME, cell-based; details: Caco-2
[15] = biological target: MDR1 (ABCB1, P-gp) ATPase (Homo sapiens, UniProt P08183); test: Inhibition of MDR1 (unknown origin) ATPase activity expressed in sf9 cell membranes assessed as residual activity at 20 uM using ATP as substrate preincubated for 5 mins followed by substrate addition measured after 20 mins by spectrophotometric method relative to control; details: Sf9 cell membranes expressing MDR1, probe ATP, read-out: Activity
Chain of MDR1 (ABCB1, P-gp) ATPase (P08183 whole entry): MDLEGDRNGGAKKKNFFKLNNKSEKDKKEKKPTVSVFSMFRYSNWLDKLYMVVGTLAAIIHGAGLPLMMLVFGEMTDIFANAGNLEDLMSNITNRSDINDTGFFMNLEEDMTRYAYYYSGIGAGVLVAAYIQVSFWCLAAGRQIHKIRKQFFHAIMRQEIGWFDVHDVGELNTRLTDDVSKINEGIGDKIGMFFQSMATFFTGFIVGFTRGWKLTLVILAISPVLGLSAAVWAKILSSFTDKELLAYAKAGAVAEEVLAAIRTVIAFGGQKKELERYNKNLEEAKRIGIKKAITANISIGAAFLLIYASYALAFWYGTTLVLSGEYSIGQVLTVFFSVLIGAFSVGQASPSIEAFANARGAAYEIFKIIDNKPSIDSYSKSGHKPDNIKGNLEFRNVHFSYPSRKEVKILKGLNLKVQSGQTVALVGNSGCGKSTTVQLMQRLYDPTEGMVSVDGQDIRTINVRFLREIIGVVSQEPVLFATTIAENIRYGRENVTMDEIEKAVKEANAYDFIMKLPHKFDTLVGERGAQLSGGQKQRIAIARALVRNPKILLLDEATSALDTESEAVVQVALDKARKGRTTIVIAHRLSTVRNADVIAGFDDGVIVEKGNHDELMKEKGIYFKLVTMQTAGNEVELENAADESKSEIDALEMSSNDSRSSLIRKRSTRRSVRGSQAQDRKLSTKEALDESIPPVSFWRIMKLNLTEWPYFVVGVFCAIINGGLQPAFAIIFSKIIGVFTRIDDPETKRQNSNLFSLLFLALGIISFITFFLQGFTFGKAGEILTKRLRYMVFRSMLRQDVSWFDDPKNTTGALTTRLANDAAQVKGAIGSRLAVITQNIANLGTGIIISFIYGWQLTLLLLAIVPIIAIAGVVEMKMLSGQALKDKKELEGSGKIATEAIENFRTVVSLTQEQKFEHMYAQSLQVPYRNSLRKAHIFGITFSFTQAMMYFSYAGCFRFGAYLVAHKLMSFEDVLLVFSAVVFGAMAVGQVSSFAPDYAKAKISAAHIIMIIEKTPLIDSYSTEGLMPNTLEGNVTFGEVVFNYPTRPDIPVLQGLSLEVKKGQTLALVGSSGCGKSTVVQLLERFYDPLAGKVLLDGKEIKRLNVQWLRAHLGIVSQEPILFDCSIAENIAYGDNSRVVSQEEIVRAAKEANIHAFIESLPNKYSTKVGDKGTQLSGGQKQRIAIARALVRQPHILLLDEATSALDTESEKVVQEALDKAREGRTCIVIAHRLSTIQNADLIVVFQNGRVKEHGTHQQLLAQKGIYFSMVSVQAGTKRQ

| Structure (SMILES) | IC50 [3] [nM] | inhibition [6] [%] | IC50 [7] [nM] | IC50 [10] [nM] | other results |
| --- | --- | --- | --- | --- | --- |
| CC[C@]1(NC(=O)c2ccc3c(c2)CCCO3)C[C@H]2CN(CCc3c([nH]c4ccccc34)[C@@](C(=O)OC)(c3cc4c(cc3OC)N(C)[C@H]3[C@@](O)(C(=O)OC)[C@H](OC(C)=O)[C@]5(CC)C=CCN6CC[C@]43[C@@H]65)C2)C1 | 0.5 to 0.7 | 98 | 1.8 to 4.9 | 0.4 | IC50 [1]: 0.8 nM; IC50 [2]: 1.4 nM; IC50 [4]: 1 nM; IC50 [5]: 0.8 nM; IC50 [8]: 1.2 nM; IC50 [9]: 2.4 nM |
| CC(=O)O[C@H]1C(=O)[C@@]2(C)[C@H]([C@H](OC(=O)c3ccccc3)[C@]3(O)C[C@H](OC(=O)[C@H](O)[C@@H](NC(=O)c4ccccc4)c4ccccc4)C(C)=C1C3(C)C)[C@]1(OC(C)=O)CO[C@@H]1C[C@@H]2O [PACLITAXEL] | 4.1 | – | > 200 | – | IC50 [1]: 8.2 nM; IC50 [2]: 6.3 nM; IC50 [4]: 3 nM; IC50 [5]: 1.9 nM; IC50 [8]: 5.4 nM; IC50 [9]: 9.5 nM |
| CC[C@]1(NC(C)=O)C[C@H]2CN(CCc3c([nH]c4ccccc34)[C@@](C(=O)OC)(c3cc4c(cc3OC)N(C)[C@H]3[C@@](O)(C(=O)OC)[C@H](OC(C)=O)[C@]5(CC)C=CCN6CC[C@]43[C@@H]65)C2)C1 | – | – | – | – | IC50 [11]: 7500 nM; IC50 [12]: 65 nM |
| CC[C@]1(NC(=O)c2ccc(C#N)cc2)C[C@H]2CN(CCc3c([nH]c4ccccc34)[C@@](C(=O)OC)(c3cc4c(cc3OC)N(C)[C@H]3[C@@](O)(C(=O)OC)[C@H](OC(C)=O)[C@]5(CC)C=CCN6CC[C@]43[C@@H]65)C2)C1 | 3.1 | 56 | 60 | 4.4 | – |
| CC[C@]1(NC=O)C[C@H]2CN(CCc3c([nH]c4ccccc34)[C@@](C(=O)OC)(c3cc4c(cc3OC)N(C)[C@H]3[C@@](O)(C(=O)OC)[C@H](OC(C)=O)[C@]5(CC)C=CCN6CC[C@]43[C@@H]65)C2)C1 | – | – | – | – | IC50 [11]: 6500 nM; IC50 [12]: 65 nM |
| CC[C@]1(NC(=O)c2ccccc2)C[C@H]2CN(CCc3c([nH]c4ccccc34)[C@@](C(=O)OC)(c3cc4c(cc3OC)N(C)[C@H]3[C@@](O)(C(=O)OC)[C@H](OC(C)=O)[C@]5(CC)C=CCN6CC[C@]43[C@@H]65)C2)C1 | 0.8 | 72 | 20 | 1.1 | – |
| CC[C@]1(NC(=O)c2ccc(C)c(C)c2)C[C@H]2CN(CCc3c([nH]c4ccccc34)[C@@](C(=O)OC)(c3cc4c(cc3OC)N(C)[C@H]3[C@@](O)(C(=O)OC)[C@H](OC(C)=O)[C@]5(CC)C=CCN6CC[C@]43[C@@H]65)C2)C1 | 4.5 to 4.6 | 67 | 7.6 to 9 | 3 | IC50 [1]: 1.4 nM; IC50 [2]: 5.8 nM; IC50 [4]: 2.3 nM; IC50 [5]: 3 nM; IC50 [8]: 4.8 nM; IC50 [9]: 6.1 nM |
| CC[C@]1(NC(=O)C(F)(F)F)C[C@H]2CN(CCc3c([nH]c4ccccc34)[C@@](C(=O)OC)(c3cc4c(cc3OC)N(C)[C@H]3[C@@](O)(C(=O)OC)[C@H](OC(C)=O)[C@]5(CC)C=CCN6CC[C@]43[C@@H]65)C2)C1 | – | – | – | – | IC50 [11]: 8100 nM; IC50 [13]: 690 nM; IC50 [12]: 660 nM |
| CC[C@]1(NC(=O)c2ccc3c(c2)CCCC3)C[C@H]2CN(CCc3c([nH]c4ccccc34)[C@@](C(=O)OC)(c3cc4c(cc3OC)N(C)[C@H]3[C@@](O)(C(=O)OC)[C@H](OC(C)=O)[C@]5(CC)C=CCN6CC[C@]43[C@@H]65)C2)C1 | 4.9 | 63 | 8.7 to 14 | 3.3 | IC50 [1]: 1.8 nM; IC50 [2]: 6.2 nM; IC50 [4]: 2.6 nM; IC50 [5]: 3.9 nM; Papp B→A [14]: 2 ×10⁻⁶ cm/s; IC50 [8]: 6.3 nM; activity at 20 min, 20 µM [15]: 0%; IC50 [9]: 6.6 nM |
| CC[C@]1(NC(=O)c2ccc(N(C)C)cc2)C[C@H]2CN(CCc3c([nH]c4ccccc34)[C@@](C(=O)OC)(c3cc4c(cc3OC)N(C)[C@H]3[C@@](O)(C(=O)OC)[C@H](OC(C)=O)[C@]5(CC)C=CCN6CC[C@]43[C@@H]65)C2)C1 | – | 88 | 4.1 | 0.18 | – |
| CC[C@]1(NC(=O)c2ccc(CNC(=O)OC(C)(C)C)cc2)C[C@H]2CN(CCc3c([nH]c4ccccc34)[C@@](C(=O)OC)(c3cc4c(cc3OC)N(C)[C@H]3[C@@](O)(C(=O)OC)[C@H](OC(C)=O)[C@]5(CC)C=CCN6CC[C@]43[C@@H]65)C2)C1 | 0.7 | – | 50 | 0.76 | – |
| CC[C@]1(NC(=O)c2ccc(OC)c(C)c2)C[C@H]2CN(CCc3c([nH]c4ccccc34)[C@@](C(=O)OC)(c3cc4c(cc3OC)N(C)[C@H]3[C@@](O)(C(=O)OC)[C@H](OC(C)=O)[C@]5(CC)C=CCN6CC[C@]43[C@@H]65)C2)C1 | 0.7 | – | 5.2 | 0.6 | – |
| CC[C@]1(NC(=O)c2cnc3ccccc3c2)C[C@H]2CN(CCc3c([nH]c4ccccc34)[C@@](C(=O)OC)(c3cc4c(cc3OC)N(C)[C@H]3[C@@](O)(C(=O)OC)[C@H](OC(C)=O)[C@]5(CC)C=CCN6CC[C@]43[C@@H]65)C2)C1 | 0.6 | – | 5.7 | 0.7 | – |
| CC[C@]1(NC(=O)c2ccc([N+](=O)[O-])cc2)C[C@H]2CN(CCc3c([nH]c4ccccc34)[C@@](C(=O)OC)(c3cc4c(cc3OC)N(C)[C@H]3[C@@](O)(C(=O)OC)[C@H](OC(C)=O)[C@]5(CC)C=CCN6CC[C@]43[C@@H]65)C2)C1 | 6.1 | – | 60 | 6.1 | – |
| CC[C@]1(NC(=O)c2ccc(NC(=O)OC(C)(C)C)cc2)C[C@H]2CN(CCc3c([nH]c4ccccc34)[C@@](C(=O)OC)(c3cc4c(cc3OC)N(C)[C@H]3[C@@](O)(C(=O)OC)[C@H](OC(C)=O)[C@]5(CC)C=CCN6CC[C@]43[C@@H]65)C2)C1 | 0.3 | – | 30 | 0.3 | – |
| CC[C@]1(O)C[C@@H]2CN(CCc3c([nH]c4ccccc34)[C@@](C(=O)OC)(c3cc4c(cc3OC)N(C)[C@H]3[C@@](O)(C(=O)OC)[C@H](OC(C)=O)[C@]5(CC)C=CCN6CC[C@]43[C@@H]65)C2)C1 [VINBLASTINE] | – | 50 to 61 | 110 to 600 | – | IC50 [2]: 37 nM; IC50 [5]: 5.1 nM; Papp B→A [14]: 38.2 ×10⁻⁶ cm/s; IC50 [8]: 14 nM; activity at 20 min, 20 µM [15]: 87%; IC50 [9]: 20 nM |
| CC[C@]1(NC(=O)c2ccc(Br)cc2)C[C@H]2CN(CCc3c([nH]c4ccccc34)[C@@](C(=O)OC)(c3cc4c(cc3OC)N(C)[C@H]3[C@@](O)(C(=O)OC)[C@H](OC(C)=O)[C@]5(CC)C=CCN6CC[C@]43[C@@H]65)C2)C1 | 1.4 | – | 10 | 2.7 | – |
| CC[C@]1(NC(=O)c2ccc3cc(N)ccc3c2)C[C@H]2CN(CCc3c([nH]c4ccccc34)[C@@](C(=O)OC)(c3cc4c(cc3OC)N(C)[C@H]3[C@@](O)(C(=O)OC)[C@H](OC(C)=O)[C@]5(CC)C=CCN6CC[C@]43[C@@H]65)C2)C1 | 0.8 | – | 7.4 | 0.7 | – |
| CC[C@]1(NC(=O)c2ccon2)C[C@H]2CN(CCc3c([nH]c4ccccc34)[C@@](C(=O)OC)(c3cc4c(cc3OC)N(C)[C@H]3[C@@](O)(C(=O)OC)[C@H](OC(C)=O)[C@]5(CC)C=CCN6CC[C@]43[C@@H]65)C2)C1 | 7 | – | 90 | 4.5 | – |
